Results on three compounds are retold here after publication PMC8795149, “Characterization of a novel non-steroidal glucocorticoid receptor agonist optimized for topical treatment” (Scientific Reports, 2022).

One data set deals with skin atrophy. On the set-up: method as in PMID 23639214. The following applies: healthy subjects; cited from earlier work.
The subject of another data set is atopic dermatitis. The arrangement: method as in PMID 25614148. The following applies: atopic dermatitis patients; cited from earlier work.
The target of data set [1] is T1, mineralocorticoid receptor (MR) (Homo sapiens, UniProt P08235).
T1 sequence (P08235 1-984): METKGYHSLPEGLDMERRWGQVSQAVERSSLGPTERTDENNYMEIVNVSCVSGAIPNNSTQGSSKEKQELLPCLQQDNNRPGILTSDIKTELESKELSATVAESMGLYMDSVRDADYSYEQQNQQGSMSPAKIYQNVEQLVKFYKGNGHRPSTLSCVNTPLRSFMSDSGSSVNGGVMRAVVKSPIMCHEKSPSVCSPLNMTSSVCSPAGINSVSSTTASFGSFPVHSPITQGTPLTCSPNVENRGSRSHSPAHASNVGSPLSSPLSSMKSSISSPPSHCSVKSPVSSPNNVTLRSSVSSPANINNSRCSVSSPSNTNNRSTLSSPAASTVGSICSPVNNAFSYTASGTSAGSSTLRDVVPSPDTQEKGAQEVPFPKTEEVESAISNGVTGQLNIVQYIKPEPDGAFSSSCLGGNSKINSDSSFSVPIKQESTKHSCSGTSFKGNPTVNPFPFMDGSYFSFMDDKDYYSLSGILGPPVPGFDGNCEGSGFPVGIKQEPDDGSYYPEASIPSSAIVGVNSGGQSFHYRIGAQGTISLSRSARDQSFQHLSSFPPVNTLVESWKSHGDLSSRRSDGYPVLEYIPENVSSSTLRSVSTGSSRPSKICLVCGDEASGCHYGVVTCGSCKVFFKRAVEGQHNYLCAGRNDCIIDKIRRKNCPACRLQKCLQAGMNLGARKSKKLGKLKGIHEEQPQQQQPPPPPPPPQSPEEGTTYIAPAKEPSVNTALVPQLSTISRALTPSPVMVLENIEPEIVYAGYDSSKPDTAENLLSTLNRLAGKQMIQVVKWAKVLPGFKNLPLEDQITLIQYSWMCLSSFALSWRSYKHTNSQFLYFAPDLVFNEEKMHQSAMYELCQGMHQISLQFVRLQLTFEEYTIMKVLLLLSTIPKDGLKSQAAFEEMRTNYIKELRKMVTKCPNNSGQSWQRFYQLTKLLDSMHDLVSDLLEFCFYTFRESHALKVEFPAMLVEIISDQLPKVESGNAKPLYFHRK
Description: MR agonist assay, MR-luciferase reporter cells. Format: cell-based. The following applies: 24 h incubation; 'in contrast' = unlike LEO 134310, which gave no significant activation. How it is done: Assays were performed at Indigo Biosciences according to standard protocols. In brief, MR-luciferase reporter cells were incubated with medium containing charcoal-stripped fetal bovine serum and incubated with test and reference compounds for 24 h before measuring luminescence. Data were fitted by the means of four parameter logistic regression.
On the technique in general: Reporter assays use an easily measured gene product as a stand-in for the process of interest.

The next data set deals with HPA axis. The arrangement: method as in PMID 3553247. The following applies: topical; cited from earlier work.

Regarding `C[C@@H]1C[C@H]2[C@@H]3C[C@H](F)C4=CC(=O)C=C[C@]4(C)[C@@]3(F)[C@@H](O)C[C@]2(C)[C@@]1(OC(=O)C1C(C)(C)C1(C)C)C(=O)OCC#N` [GW870086], the “Induction of skin atrophy” value in the data set with skin atrophy is “not to induce skin atrophy”. Moreover, the Clinical efficacy result in the data set on atopic dermatitis is “did not achieve significant clinical efficacy”. Consider `C[C@]12CCC(=O)C=C1CC[C@@H]1[C@@H]2[C@@H](O)C[C@]2(C=O)[C@@H](C(=O)CO)CC[C@@H]12` [aldosterone], for which the “Activation of MR (luciferase activity)” value in data set [1] was “positive control”. For the compound `CCC(=O)OCC(=O)[C@@]1(OC(=O)CC)[C@@H](C)C[C@H]2[C@@H]3CCC4=CC(=O)C=C[C@]4(C)[C@@]3(F)[C@@H](O)C[C@@]21C` [betamethasone dipropionate], the “Effect on morning plasma cortisol” value in the data set with HPA axis is “reduce morning plasma cortisol significantly”.
